# Reference: patent US10508089B2, “Use of N-(1,3,4-Oxadiazol-2-yl)arylcarboxamides or their salts for controlling unwanted plants in areas of transgenic crop plants being tolerant to HPPD inhibitor herbicides” (BASF SE, priority 2014, dated 2019)
# Like-named read-outs stand apart in the source and are kept apart here.
# Key:
# [1] = molecular target: PfHPPD Evo 41 SEQ ID No 29 (Pseudomonas sp., UniProt P80064, A172V/A339Q/A53E/D148E/D45N/E105D/E287Q/E300V/E334P/F143Y/G286D/G335W/H150N/H254A/H63N/I158V/I187A/I249V/K338A/K92N/L18F/N24G/N280D/S245T/S257K/S301E/T205S/V65I); experiment: biochemical; set-up: species or system Pseudomonas fluorescens
# PfHPPD Evo 41 SEQ ID No 29, sequence (P80064 1-354 with tags or gaps with the stated changes limits assumed): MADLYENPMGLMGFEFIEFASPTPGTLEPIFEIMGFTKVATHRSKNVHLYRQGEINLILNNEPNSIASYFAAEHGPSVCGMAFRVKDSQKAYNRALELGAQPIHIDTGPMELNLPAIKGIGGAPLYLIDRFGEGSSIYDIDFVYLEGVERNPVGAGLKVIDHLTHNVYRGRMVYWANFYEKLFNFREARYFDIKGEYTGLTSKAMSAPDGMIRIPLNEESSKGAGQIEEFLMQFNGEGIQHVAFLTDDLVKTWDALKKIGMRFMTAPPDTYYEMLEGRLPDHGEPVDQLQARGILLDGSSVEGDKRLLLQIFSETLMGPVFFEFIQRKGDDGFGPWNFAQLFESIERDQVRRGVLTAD
# [2] = system: T2 soybean events expressing PfHPPD-Evo33; assay type: in vivo; conditions: 14 days after treatment
structure (smiles),measurement,setting,value
Cc1nnc(NC(=O)c2ccc(C(F)(F)F)c(S(C)(=O)=O)c2C)o1 [Compound 2-145],IC50,[1],5.01 µM
same,Number of plants categorized herbicide tolerance “0” (marginal; 41%-100% damaged leaf area),"[2]; 6.25 g Al/ha, total 12",0
same,Number of plants categorized herbicide tolerance “1” (moderate; 26%-40% damaged leaf area),"[2]; 6.25 g Al/ha, total 12",0
same,Number of plants categorized herbicide tolerance “2” (good; 16%-25% damaged leaf area),"[2]; 6.25 g Al/ha, total 12",0
same,Number of plants categorized herbicide tolerance “3” (high; less than or equal to 15% damaged leaf area),"[2]; 6.25 g Al/ha, total 12",12
same,Number of plants categorized herbicide tolerance “0” (marginal; 41%-100% damaged leaf area),"[2]; 25 g Al/ha, total 16",1
same,Number of plants categorized herbicide tolerance “1” (moderate; 26%-40% damaged leaf area),"[2]; 25 g Al/ha, total 16",1
same,Number of plants categorized herbicide tolerance “2” (good; 16%-25% damaged leaf area),"[2]; 25 g Al/ha, total 16",0
same,Number of plants categorized herbicide tolerance “3” (high; less than or equal to 15% damaged leaf area),"[2]; 25 g Al/ha, total 16",14
same,Number of plants categorized herbicide tolerance “0” (marginal; 41%-100% damaged leaf area),"[2]; 50 g Al/ha, total 4",0
same,Number of plants categorized herbicide tolerance “1” (moderate; 26%-40% damaged leaf area),"[2]; 50 g Al/ha, total 4",0
same,Number of plants categorized herbicide tolerance “2” (good; 16%-25% damaged leaf area),"[2]; 50 g Al/ha, total 4",1
same,Number of plants categorized herbicide tolerance “3” (high; less than or equal to 15% damaged leaf area),"[2]; 50 g Al/ha, total 4",3
same,Number of plants categorized herbicide tolerance “0” (marginal; 41%-100% damaged leaf area),"[2]; 75 g Al/ha, total 4",0
same,Number of plants categorized herbicide tolerance “1” (moderate; 26%-40% damaged leaf area),"[2]; 75 g Al/ha, total 4",0
same,Number of plants categorized herbicide tolerance “2” (good; 16%-25% damaged leaf area),"[2]; 75 g Al/ha, total 4",0
same,Number of plants categorized herbicide tolerance “3” (high; less than or equal to 15% damaged leaf area),"[2]; 75 g Al/ha, total 4",4
